Test results published in PubChem BioAssay (NCI).
Several values for one entry are separate records, joined by “and”; a condition that tells them apart may be missing. Identical values can stand only once.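 All cell lines were grown in 96-well plates and treated with compound for 48 hours. GI50 marks 50% less growth. TGI: concentration producing complete growth inhibition.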

Experiments:
Assay in all cases: NCI anticancer screen, dose series, 48 h
U251 CNS = tested on: U251 CNS
SK-OV-3 ovarian = tested on: SK-OV-3 ovarian
HCT-15 colon = tested on: HCT-15 colon
HS 578T breast = tested on: HS 578T breast
SK-MEL-5 melanoma = tested on: SK-MEL-5 melanoma
786-0 renal = tested on: 786-0 renal
SR leukemia = tested on: SR leukemia
KM12 colon = tested on: KM12 colon
K-562 leukemia = tested on: K-562 leukemia
OVCAR-5 ovarian = tested on: OVCAR-5 ovarian
TK-10 renal = tested on: TK-10 renal
PC-3 prostate = tested on: PC-3 prostate

Compound	TGI (U251 CNS)	TGI (SK-OV-3 ovarian)	TGI (HCT-15 colon)	TGI (HS 578T breast)	TGI (SK-MEL-5 melanoma)	TGI (786-0 renal)	TGI (SR leukemia)	TGI (KM12 colon)	TGI (K-562 leukemia)	TGI (OVCAR-5 ovarian)	TGI (TK-10 renal)	TGI (PC-3 prostate)	GI50 (SK-OV-3 ovarian)	GI50 (HCT-15 colon)	GI50 (SK-MEL-5 melanoma)	GI50 (KM12 colon)	GI50 (OVCAR-5 ovarian)	GI50 (TK-10 renal)	GI50 (PC-3 prostate)
CCOC(=O)NC(Nc1cccc(F)c1)(C(F)(F)F)C(F)(F)F	> 100 µM	> 100 µM	> 100 µM	> 100 µM	> 100 µM	> 100 µM	> 100 µM	> 100 µM	> 100 µM	> 100 µM	> 100 µM	> 100 µM	–	–	–	–	–	–	–
CC[C@@]1(O)C(=O)OCc2c1cc1n(c2=O)Cc2c-1nc1ccccc1c2C=Nc1ccc(N[C@@H]2c3cc4c(cc3[C@@H](c3cc(OC)c(O)c(OC)c3)[C@H]3C(=O)OC[C@@H]32)OCO4)cc1	> 48.8 µM	9.93 µM	–	> 100 µM	0.309 µM and 0.366 µM	0.329 µM	28.2 µM	> 44.3 µM and 6.24 µM	19.3 µM and 10.3 µM	–	28.5 µM and 3.33 µM	> 100 µM	0.668 µM and 0.141 µM	1.08 µM and 0.236 µM	0.0255 µM	1.69 µM and 0.269 µM	0.545 µM and 0.141 µM	2.16 µM and 0.815 µM	0.822 µM and 0.0864 µM
COP(=N[Si](C)(C)C)(OC)OC	> 100 µM	> 100 µM	> 100 µM	> 100 µM	> 100 µM	> 100 µM	> 100 µM	> 100 µM	> 100 µM	> 100 µM	> 100 µM	> 100 µM	–	–	–	–	–	–	–
COc1ccc(-c2c(C#N)c(N)n(C3OCC(O)C(O)C3O)c(=S)c2C#N)cc1 (stereo unspecified)	–	> 100 µM	> 100 µM	> 100 µM	> 100 µM	> 100 µM	> 100 µM	> 100 µM	> 100 µM	> 100 µM	> 100 µM	> 100 µM	–	–	–	–	–	–	–
CC(C)/C(Cl)=N/OC(NC(=O)Nc1ccc(Cl)c(Cl)c1)(C(F)(F)F)C(F)(F)F	33.2 µM	32.3 µM	28.9 µM	99.4 µM	29.3 µM	22.2 µM	> 100 µM	36.1 µM	8.86 µM	38.4 µM	31.2 µM	27.3 µM	–	–	–	–	–	–	–
C=CCN1C(=O)/C(=C/c2ccccc2)N=C1SC/C=C/C	> 100 µM	> 100 µM	> 100 µM	> 100 µM	47.6 µM	> 100 µM	23.3 µM	> 100 µM	> 100 µM	–	> 100 µM	55.8 µM	–	–	–	–	–	–	–
CSC1=C(C)S/C(=C\c2ccc(/C=C3\SC(C)=C(SC)S3)cc2)S1	> 100 µM	> 100 µM	> 100 µM	> 100 µM	> 100 µM	> 100 µM	> 100 µM	> 100 µM	> 100 µM	> 100 µM	> 100 µM	> 100 µM	–	–	–	–	–	–	–
Cc1cccc2c1CC(C1OC(=O)c3c(C)cccc31)C2=O (stereo unspecified)	> 100 µM	> 100 µM	> 100 µM	> 100 µM	> 100 µM	> 100 µM	> 100 µM	> 100 µM	> 100 µM	> 100 µM	> 100 µM	> 100 µM	–	–	–	–	–	–	–
CCOc1cc(NC(C)=O)ccc1C(=O)NN1C(=O)C(Cl)C1c1ccc(O)c(OC)c1 (stereo unspecified)	–	33.6 µM	29.9 µM	51.5 µM	22.8 µM	26 µM	19.5 µM	33.6 µM	25.1 µM	33.9 µM	11.5 µM	28.3 µM	–	–	–	–	–	–	–
COC(=O)C1=C(O)C(C(=O)OC)[C@]2(O)[C@H](C(=O)OC)[C@H]1C[C@@H](c1ccc(O)cc1)[C@H]2C(=O)OC (stereo partly specified)	50.1 µM	61.6 µM	> 100 µM	87.3 µM	> 100 µM	> 100 µM	> 100 µM	49.9 µM	> 100 µM	97.1 µM	86.4 µM	76.4 µM	–	–	–	–	–	–	–
c1ccc2c(c1)Sc1ccccc1N2CCCN1c2ccccc2Sc2ccccc21	> 100 µM	> 100 µM	> 100 µM	> 100 µM	> 100 µM	45.2 µM	> 100 µM	> 100 µM	> 100 µM	> 100 µM	> 100 µM	> 100 µM	–	–	–	–	–	–	–
C[C@@H]1C(=O)O[C@@H]2C[C@@]1(C)[C@@H]1C(=O)C3(O)OC14C2(C)OC(=O)[C@@]4(O)CCC1C3C(O)C=C2CC=CC(=O)[C@@]21C (stereo partly specified)	> 100 µM	> 100 µM	> 100 µM	50.7 µM	> 100 µM	> 100 µM	47.8 µM	71.1 µM	> 100 µM	67.9 µM	> 100 µM	> 100 µM	–	–	–	–	–	–	–
Cc1ccc(/C(O)=C/c2nc3ccccc3nc2NC23CC4CC(CC(C4)C2)C3)cc1	> 10 µM	> 10 µM	> 10 µM	> 10 µM	> 10 µM	> 10 µM	> 10 µM	> 10 µM	> 10 µM	> 10 µM	> 10 µM	> 10 µM	–	–	–	–	–	–	–
CCCC[P+](CCCC)(CCCC)C(C(=O)OC)C(C(=O)OC)=C1SC(C(=O)OC)=C(C(=O)OC)S1 (stereo unspecified)	> 100 µM	> 100 µM	> 100 µM	> 100 µM	> 100 µM	> 100 µM	> 100 µM	–	–	> 100 µM	> 100 µM	> 100 µM	–	–	–	–	–	–	–
Cc1ccc([N+](=O)[O-])cc1S(=O)(=O)Nc1ccc(C2=NOC(c3ccccc3)C2)cc1 (stereo unspecified)	–	56.5 µM	> 100 µM	> 100 µM	20.1 µM	35.6 µM	12.1 µM	18.5 µM	5.14 µM	> 100 µM	–	> 100 µM	–	–	–	–	–	–	–
CN(C)Cc1cc(N=Nc2c(Cl)cccc2Cl)ccc1O	> 100 µM	> 100 µM	> 100 µM	> 100 µM	52.1 µM	> 100 µM	> 100 µM	> 100 µM	> 100 µM	–	> 100 µM	> 100 µM	–	–	–	–	–	–	–
O=c1ccc(-c2ccc(-n3ccnc3)cc2)nn1CCO	> 100 µM	> 100 µM	> 100 µM	> 100 µM	> 100 µM	> 100 µM	> 100 µM	> 100 µM	–	> 100 µM	> 100 µM	> 100 µM	–	–	–	–	–	–	–
Cc1nc(C)c(N2CCN(C(=O)NC(CCC(=O)O)C(=O)O)CC2)c(=O)[nH]1 (stereo unspecified)	> 100 µM	> 100 µM	> 100 µM	> 100 µM	–	> 100 µM	> 100 µM	> 100 µM	> 100 µM	> 100 µM	> 100 µM	> 100 µM	–	–	–	–	–	–	–
